From patent US6274715A, “Tricyclic erythromycin derivatives” (priority 1997, dated 2001)
In brackets after ≈: the same amount, converted by molar mass.

Legend:
Type in all cases: cell-based
[1] = system: STAPHYLOCOCCUS AUREUS ATCC 6538P; experiment: In vitro antibacterial activity, MIC, BHI agar dilution; details: S. aureus ATCC 6538P, 35-37° C., 20 to 24 hours, unit assumed
[2] = system: STAPHYLOCOCCUS AUREUS A5177; experiment: as above; details: S. aureus A5177, unit assumed
[3] = system: STAPHYLOCOCCUS AUREUS A-5278; experiment: as above; details: S. aureus A-5278, unit assumed
[4] = system: STAPHYLOCOCCUS AUREUS CMX 642A; experiment: as above; details: S. aureus CMX 642A, unit assumed
[5] = system: STAPHYLOCOCCUS AUREUS NCTC10649M; experiment: as above; details: S. aureus NCTC10649M, unit assumed
[6] = system: STAPHYLOCOCCUS AUREUS CMX 553; experiment: as above; details: S. aureus CMX 553, unit assumed
[7] = system: STAPHYLOCOCCUS AUREUS 1775; experiment: as above; details: S. aureus 1775, unit assumed
[8] = system: STAPHYLOCOCCUS EPIDERMIDIS 3519; details: S. epidermidis 3519; BHI agar; unit assumed
EN[…] ATCC 8043 = experiment: In vitro antibacterial activity, MIC, BHI agar dilution; details: E. faecium ATCC 8043, unit assumed
Outline: (§1)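 Twelve successive aqueous dilutions of compound in Brain Heart Infusion agar were inoculated with 1:100 culture dilutions (1:10 for slow growers such as Micrococcus, Streptococcus) by Steers replicator and incubated at 35-37° C for 20 to 24 hours. MIC was the lowest concentration giving no growth, slight haze or sparse colonies versus drug-free control.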

M[…] ATCC 4698 = experiment: as above; details: M. luteus ATCC 4698, unit assumed
Outline: as §1

M[…] ATCC 9341 = experiment: as above; details: M. luteus ATCC 9341, unit assumed
Outline: as §1

STR[…] 508 = experiment: as above; details: S. agalactiae CMX 508, unit assumed
Outline: as §1

[9] = system: STREPTOCOCCUS BOVIS A-5169; experiment: as above; details: S. bovis A-5169, unit assumed
[10] = system: STREPTOCOCCUS PYOGENES EES61; experiment: as above; details: S. pyogenes EES61, unit assumed
[11] = system: STREPTOCOCCUS PYOGENES 930; experiment: as above; details: S. pyogenes 930, unit assumed
[12] = system: STREPTOCOCCUS PYOGENES PIU 2548; experiment: as above; details: S. pyogenes PIU 2548, unit assumed
ESCHERICHIA COLI JUHL = details: E. coli JUHL; BHI agar; unit assumed
ESCHERICHIA COLI SS = experiment: In vitro antibacterial activity, MIC, BHI agar dilution; details: E. coli SS, unit assumed
ESCHERICHIA COLI DC-2 = experiment: as above; details: E. coli DC-2, unit assumed
ESCHERICHIA COLI H560 = experiment: as above; details: E. coli H560, unit assumed
ESCHERICHIA COLI KNK 437 = details: E. coli KNK 437; BHI agar; unit assumed
[13] = system: ENTEROBACTER AEROGENES ATCC 13048; experiment: In vitro antibacterial activity, MIC, BHI agar dilution; details: E. aerogenes ATCC 13048, unit assumed
[14] = system: KLEBSIELLA PNEUMONIAE ATCC 8045; experiment: as above; details: K. pneumoniae ATCC 8045, unit assumed
[15] = system: PROVIDENCIA STUARTII CMX 640; details: P. stuartii CMX 640; BHI agar; unit assumed
[16] = system: PSEUDOMONAS AERUGINOSA BMH10; experiment: In vitro antibacterial activity, MIC, BHI agar dilution; details: P. aeruginosa BMH10, unit assumed
[17] = system: PSEUDOMONAS AERUGINOSA 5007; experiment: as above; details: P. aeruginosa 5007, unit assumed
[18] = system: PSEUDOMONAS AERUGINOSA K799/WT; experiment: as above; details: P. aeruginosa K799/WT, unit assumed
[19] = system: PSEUDOMONAS AERUGINOSA K799/61; experiment: as above; details: P. aeruginosa K799/61, unit assumed
PSEUDOMONAS CEPACIA 296I = experiment: as above; details: P. cepacia 296I, unit assumed
[20] = system: ACINETOBACTER CALCOACETICUS CMX 669; experiment: as above; details: A. calcoaceticus CMX 669, unit assumed
[21] = system: PSEUDOMONAS AERUGINOSA DPHD-5263; experiment: as above; details: P. aeruginosa DPHD-5263, unit assumed
[22] = system: PSEUDOMONAS AERUGINOSA DPHD-2862; experiment: as above; details: P. aeruginosa DPHD-2862, unit assumed
CANDIDA ALBICANS CCH 442 = experiment: as above; details: C. albicans CCH 442, unit assumed
[23] = system: MYCOBACTERIUM SMEGMATIS ATCC 114; experiment: as above; details: M. smegmatis ATCC 114, unit assumed

Compound	MIC [1] [µg/mL]	MIC [2] [µg/mL]	MIC [3] [µg/mL]	MIC [4] [µg/mL]	MIC [5] [µg/mL]	MIC [6] [µg/mL]	MIC [7] [µg/mL]	MIC [8] [µg/mL]	MIC (EN[…] ATCC 8043) [µg/mL]	MIC (M[…] ATCC 4698) [µg/mL]	MIC (M[…] ATCC 9341) [µg/mL]	MIC (STR[…] 508) [µg/mL]	MIC [9] [µg/mL]	MIC [10] [µg/mL]	MIC [11] [µg/mL]	MIC [12] [µg/mL]	MIC (ESCHERICHIA COLI JUHL) [µg/mL]	MIC (ESCHERICHIA COLI SS) [µg/mL]	MIC (ESCHERICHIA COLI DC-2) [µg/mL]	MIC (ESCHERICHIA COLI H560) [µg/mL]	also measured
CC[C@H]1OC(=O)[C@H](C)C(=O)[C@H](C)[C@@H](O[C@@H]2O[C@H](C)C[C@H](N(C)C)[C@H]2O)[C@](C)(OC)C[C@@H](C)C2=N[C@H](COCc3ccc(F)cc3)CN3C(=O)O[C@@]1(C)[C@H]3[C@H]2C [Example 101]	0.05 (≈ 0.0644 µM)	0.05 (≈ 0.0644 µM)	> 100	0.1 (≈ 0.129 µM)	0.05 (≈ 0.0644 µM)	0.05 (≈ 0.0644 µM)	> 100	0.1 (≈ 0.129 µM)	≤ 0.005	0.02 (≈ 0.0258 µM)	≤ 0.005	≤ 0.005	≤ 0.005	≤ 0.005	> 100	0.05 (≈ 0.0644 µM)	> 100	0.2 (≈ 0.258 µM)	> 100	100 (≈ 129 µM)	MIC (ESCHERICHIA COLI KNK 437): > 100 µg/mL; MIC [13]: > 100 µg/mL; MIC [14]: > 100 µg/mL; MIC [15]: > 100 µg/mL; MIC [16]: > 100 µg/mL; MIC [17]: > 100 µg/mL; MIC [18]: > 100 µg/mL; MIC [19]: 1.56 µg/mL (≈ 2.01 µM); MIC (PSEUDOMONAS CEPACIA 296I): 100 µg/mL (≈ 129 µM); MIC [20]: 100 µg/mL (≈ 129 µM); MIC [21]: > 100 µg/mL; MIC [22]: > 100 µg/mL; MIC (CANDIDA ALBICANS CCH 442): > 100 µg/mL; MIC [23]: 0.39 µg/mL (≈ 0.503 µM)
CC[C@H]1OC(=O)[C@H](C)C(=O)[C@H](C)[C@@H](O[C@@H]2O[C@H](C)C[C@H](N(C)C)[C@H]2O)[C@](C)(OC)C[C@@H](C)C2=N[C@H](COCc3ccccc3Br)CN3C(=O)O[C@@]1(C)[C@H]3[C@H]2C [Example 104]	0.05 (≈ 0.0597 µM)	0.05 (≈ 0.0597 µM)	100 (≈ 119 µM)	0.05 (≈ 0.0597 µM)	0.05 (≈ 0.0597 µM)	0.05 (≈ 0.0597 µM)	100 (≈ 119 µM)	0.05 (≈ 0.0597 µM)	0.01 (≈ 0.0119 µM)	0.1 (≈ 0.119 µM)	0.02 (≈ 0.0239 µM)	0.01 (≈ 0.0119 µM)	0.01 (≈ 0.0119 µM)	0.01 (≈ 0.0119 µM)	25 (≈ 29.9 µM)	0.05 (≈ 0.0597 µM)	100 (≈ 119 µM)	0.78 (≈ 0.932 µM)	100 (≈ 119 µM)	50 (≈ 59.7 µM)	MIC (ESCHERICHIA COLI KNK 437): > 100 µg/mL; MIC [13]: > 100 µg/mL; MIC [14]: > 100 µg/mL; MIC [15]: > 100 µg/mL; MIC [16]: > 100 µg/mL; MIC [17]: > 100 µg/mL; MIC [18]: > 100 µg/mL; MIC [19]: 3.1 µg/mL (≈ 3.7 µM); MIC (PSEUDOMONAS CEPACIA 296I): 100 µg/mL (≈ 119 µM); MIC [20]: 100 µg/mL (≈ 119 µM); MIC [21]: > 100 µg/mL; MIC [22]: > 100 µg/mL; MIC (CANDIDA ALBICANS CCH 442): 100 µg/mL (≈ 119 µM); MIC [23]: 0.39 µg/mL (≈ 0.466 µM)
CC[C@H]1OC(=O)[C@H](C)C(=O)[C@H](C)[C@@H](O[C@@H]2O[C@H](C)C[C@H](N(C)C)[C@H]2O)[C@](C)(OC)C[C@@H](C)C2=N[C@H](COCc3cccc(Br)c3)CN3C(=O)O[C@@]1(C)[C@H]3[C@H]2C [Example 105]	0.05 (≈ 0.0597 µM)	0.05 (≈ 0.0597 µM)	100 (≈ 119 µM)	0.05 (≈ 0.0597 µM)	0.02 (≈ 0.0239 µM)	0.05 (≈ 0.0597 µM)	100 (≈ 119 µM)	0.05 (≈ 0.0597 µM)	≤ 0.005	0.01 (≈ 0.0119 µM)	≤ 0.005	≤ 0.005	≤ 0.005	≤ 0.005	25 (≈ 29.9 µM)	0.05 (≈ 0.0597 µM)	100 (≈ 119 µM)	0.39 (≈ 0.466 µM)	100 (≈ 119 µM)	50 (≈ 59.7 µM)	MIC (ESCHERICHIA COLI KNK 437): > 100 µg/mL; MIC [13]: > 100 µg/mL; MIC [14]: > 100 µg/mL; MIC [15]: > 100 µg/mL; MIC [16]: > 100 µg/mL; MIC [17]: > 100 µg/mL; MIC [18]: > 100 µg/mL; MIC [19]: 1.56 µg/mL (≈ 1.86 µM); MIC (PSEUDOMONAS CEPACIA 296I): 100 µg/mL (≈ 119 µM); MIC [20]: 100 µg/mL (≈ 119 µM); MIC [21]: > 100 µg/mL; MIC [22]: > 100 µg/mL; MIC (CANDIDA ALBICANS CCH 442): 100 µg/mL (≈ 119 µM); MIC [23]: 0.78 µg/mL (≈ 0.932 µM)
